Experiments:
[1] = parameters: species or system Korean healthy males; settings: in vivo
Experimental: Drug exposure as AUC was studied among Korean healthy males aged between 20 and 50 years in two clinical studies: (1) a randomized, open-label, multiple-dose, cross-over study of 36 subjects divided into 6 cohorts and treated over 3 periods (subjects were administered either 1 tablet of 40 mg olmesartan medoxomil, 1 tablet of 20 mg rosuvastatin calcium, or a 1 tablet each of both agents (fixed dosage composition, single dose form) orally every 24 hours for 7 days, with an 8-day washout period separating the individual treatment courses) and (2) a randomized, open-label, single-dose, cross-over study of 58 subjects divided into 2 cohorts and treated over 2 periods (Son H, Roh H, Lee D, Chang H, Kim J, Yun C, et al. Pharmacokinetics of rosuvastatin/olmesartan fixed-dose combination: a single-dose, randomized, open-label, 2-period crossover study in healthy Korean subjects. Clin Ther 2013; 35:915-22) (one tablet of ST-101, also known as olmesartan/rosuvastatin FDC, tablet of 40 mg olmesartan medoxomil/20 mg rosuvastatin calcium was administered once orally as the test drug, or 1 tablet each of 40 mg olmesartan medoxomil and 20 mg rosuvastatin calcium was co-administered once orally as the comparator; eligible subjects were randomly assigned to 2 groups (test arm vs comparator arm) in a 1:1 ratio; each subject received a single dose of the FDC or the comparator orally in a fasted state, with a 7-day washout period between the administrations.
A total of 34 volunteers in study 1 and 54 volunteers in study 2 were evaluated for olmesartan pharmacokinetic (PK) analysis. For PK analyses, blood samples were collected at 0 (pre-dose), 0.5, 2, 2.5, 3, 4, 5, 6, 7, 8, 10, 12, 16, 24, 48 hour after dosing of olmesartan either as FDC or as single agent.
FIG. 1 compares individual values of olmesartan AUC when dosed as either olmesartan single agent (OM) or olmesartan/rosuvastatin (OM/RC) fixed dose composition (FDC). […] The coefficient of variations were 29.95% and 24.42% for olmesartan single agent and OM/RC FDC, respectively. The tabulated summary of the data including Gaussian tests are shown below in Table 1.
FIG. 6 illustrates the linear correlation between the first and second pharmacokinetic determinations (AUC) for olmesartan. The linear regression is described by the following equation: Y=0.9782*X. The p value of significant deviation from 0 is less than 0.0001.

[2] = tested on: Korean subjects with hypertension associated with dyslipidemia; assay: Phase 3 clinical study, variability of SBP and DBP reduction; format: in vivo, human (Korean subjects); settings: once daily up to 8 weeks; olmesartan medoxomil 40 mg
Experimental: Hypertension therapy effectiveness was evaluated by evaluating the variability of systolic blood pressure (SBP) and diastolic blood pressure (DBP) reduction following dosing with olmesartan single agent (OM) or a fixed dosage composition comprising olmesartan and rosuvastatin (OM/RC FDC). […] The study was a multi-site, randomized, double-blind, placebo-controlled, factorial, 4 arm, 8 week Phase 3 clinical study of Korean subjects with hypertension associated with dyslipidemia aged between 20 and 80 years. Following a 4-week therapeutic lifestyle-change period that included a washout period, eligible patients were randomized in a 2:1:1:1 ratio to receive either OM/RC FDC, olmesartan medoxomil 40 mg, rosuvastatin calcium 20 mg, or placebo, once daily, for up to 8 weeks. A total of 183 subjects were randomized (72 subjects in OM/RC FDC, 39 subjects in olmesartan medoxomil 40 mg, 38 subjects in rosuvastatin calcium 20 mg, and 34 subjects in placebo). Among the 183 randomized subjects, 181 subjects took the investigational drug (ST-101/OM/RC FDC), 162 subjects completed the study, and 21 of […] subjects were discontinued from the study. The SBP and DBP reduction was highly variable. FIG. 2 compares the variability of systolic blood pressure (SBP) reduction after dosing with olmesartan single agent (olmesartan) or olmesartan/rosuvastatin fixed dose combination (OM/RC FDC, ST-101). […]

[3] = tested on: patients with hypertension; assay: Dose response of blood pressure reduction, analysis of 21 published clinical studies; format: in vivo, human; settings: olmesartan medoxomil 5 to 80 mg monotherapy, 21 clinical studies
Experimental: PubMed database was searched to identify relevant scientific and review articles from June 2001 to June 2015 using the search terms olmesartan efficacy, response, effect/clinical trial. Reference lists of included articles were reviewed to locate additional references of interest. PD studies with olmesartan medoxomil dose range from 5 to 80 mg monotherapy were selected. PD response and demographic data from a total of 10,770 patients with hypertension in 21 clinical studies were included in the analysis (Oparil S, Williams D, Chrysant S G, Marbury T C, Neutel J. (2001). Comparative efficacy of olmesartan, losartan, valsartan, and irbesartan in the control of essential hypertension. J Clin Hypertens (Greenwich) 2001; 3(5):283-318; Püchler K, Laeis P, Stumpe K O. Blood pressure response, but not adverse event incidence, correlates with dose of angiotensin II antagonist. J Hypertens Suppl 2001 June; 19(1):S41-8; Neutel J M, Elliott W J, Izzo J L, Chen C L, Masonson H N. Antihypertensive efficacy of olmesartan medoxomil, a new angiotensin II receptor antagonist, as assessed by ambulatory blood pressure measurements. […] J Hum Hypertens 2002; 16(Suppl 2):S24-8; Brunner H R, Stumpe K O, Januszewicz A. Antihypertensive efficacy of olmesartan medoxomil and candesartan cilexetil assessed by 24-hour ambulatory blood pressure monitoring in patients with essential hypertension. […]

[4] = parameters: species or system healthy subjects (Asian and non-Asian); settings: in vivo
Source text: PubMed database was searched to identify relevant scientific and review articles from May 2001 to June 2015 using the search term olmesartan PK. Reference lists of included articles were reviewed to locate additional references of interest. PK studies with single dose AUC of olmesartan medoxomil in healthy subjects were selected. Olmesartan medoxomil AUC from co-administration of olmesartan medoxomil with other drugs or FDC containing olmesartan medoxomil were also included if there was no known drug-drug interaction (DDI). The pharmacokinetic datasets for olmesartan were obtained from published clinical studies across Asian and non-Asian subjects with a dose range from 10 to 160 mg. More than 80% of the studies reported AUC in arithmetic mean. […] PK and demographic data from a total of 895 healthy subjects from 13 clinical studies were included in the final analysis Schwocho L R and Masonson H N. Pharmacokinetics of CS866, a new angiotensin II receptor block, in healthy subjects. J Clin Pharmacol 2001; 41:515-27; von Bergmann K, Laeis P, Pilchler K, Sudhop T, Schwocho L R, Gonzalez L. Olmesartan medoxomil: influence of age, renal and hepatic function on the PK of olmesartan medoxomil. […]

slope of linear regression between first and second AUC determinations (Y=slope*X) [1]: 0.9782
coefficient of variation of olmesartan AUC ([1]; po, 40 mg): 29.95%
olmesartan AUC, 25% Percentile ([1]; po, 40 mg): 6317
olmesartan AUC, 75% Percentile ([1]; po, 40 mg): 8916
olmesartan AUC, Maximum ([1]; po, 40 mg): 17026
olmesartan AUC, Mean ([1]; po, 40 mg): 7908
olmesartan AUC, Median ([1]; po, 40 mg): 7450 ng·h/mL
olmesartan AUC, Minimum ([1]; po, 40 mg): 3899
SMILES: CCCc1nc(C(C)(C)O)c(C(=O)OCc2oc(=O)oc2C)n1Cc1ccc(-c2ccccc2-c2nnn[nH]2)cc1 [OM Single Agent, olmesartan medoxomil]
coefficient of variation for DBP reduction [2]: 79.25%
coefficient of variation for SBP reduction [2]: 78.24%
relationship between DBP reduction and dose (regression analysis) [3]: very shallow insignificant relationship
correlation between SBP reduction and dose (regression analysis) ([3]; p=0.04): only weak correlation
AUC among Asian subjects versus non-Asian subjects [4]: comparable to AUC in non-Asian subjects at the same dose level
dependence of AUC on dose [4]: linear dose-dependent increase in AUC from 10 to 160 mg
